This note sets out measurements from patent publication US9586956B2, “Isoquinoline and naphthyridine derivatives” (Genentech, Inc., priority 2012, dated 2017).

Structures are written as SMILES.

The target of the first assay is T1, purified human MAP4K4 kinase domain (Homo sapiens, UniProt O95819).
T1 construct: purified human MAP4K4 kinase domain
T1 sequence (O95819 25-289 limits assumed): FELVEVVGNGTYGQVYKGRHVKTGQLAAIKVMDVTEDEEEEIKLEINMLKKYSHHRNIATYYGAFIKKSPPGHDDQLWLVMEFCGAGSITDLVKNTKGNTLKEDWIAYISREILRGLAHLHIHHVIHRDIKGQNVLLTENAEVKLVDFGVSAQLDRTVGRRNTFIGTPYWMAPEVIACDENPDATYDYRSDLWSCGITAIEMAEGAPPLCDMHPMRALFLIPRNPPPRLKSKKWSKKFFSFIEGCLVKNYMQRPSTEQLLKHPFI
Nature of the assay: MAP4K4 Inhibition Assay Protocol No. 1 (Caliper LabChip, moesin-derived peptide phosphorylation). It is filed as biochemical. The conditions noted are these: Assay 1; 1 nM enzyme, 10 uM ATP, 45 min. On the procedure:
The kinase activity of purified human MAP4K4 kinase domain was measured by monitoring the phosphorylation of a peptide substrate derived from moesin protein (Leu-Gly-Arg-Asp-Lys-Tyr-Lys-Thr-Leu-Arg-Gln-Ile-Arg-Gln) fluorescently labeled on the N-terminus with 5-carboxyfluorescein using the Caliper LabChip technology (Caliper Life Sciences, Hopkinton, Mass.). To determine inhibition constants (IC50), compounds were serially diluted in DMSO and added to 10 uL kinase reactions containing 1 nM purified MAP4K4 enzyme, 1 uM peptide substrate, 10 uM ATP, 10 mM MgCl2, 1 mM EGTA, 50 mM Hepes pH 7.2, 1 mM DTT, 0.01% Triton X-100, and 2% DMSO. Reactions were incubated at room temperature in Perkin Elmer Proxiplates for 45 minutes and stopped by the addition of 10 uL of an EDTA-containing solution (50 mM Hepes pH 7.2, 40 mM EDTA, 0.02% Triton X-100). The fraction of phosphorylated peptide was determined as a fraction of total peptide substrate using the Caliper Lab Chip 3000 according to the manufacturer's instructions. IC50 values were determined using the four-parameter non-linear fit model.
For orientation: IC50 means the concentration that gives 50% inhibition. High values mean weaker potency, low ones greater potency. The compound `Nc1ncc(C(=O)Nc2cccnc2)c2ccc(-c3cccc(F)c3)cc12` [Example 107, 1-amino-7-(3-fluorophenyl)-N-(3-pyridyl)isoquinoline-4-carboxamide] had an IC50 of 0.0124 µM. This lies in the double-digit nanomolar range. Turning to `Nc1ncc(C(=O)NC2CC2)c2ccc(-c3cccc(F)c3)cc12` [Example 108, 1-amino-N-cyclopropyl-7-(3-fluorophenyl) isoquinoline-4-carboxamide], inhibition was half-maximal at 0.0156 µM (IC50). Same read-out and setting: to `Nc1ncc(C(=O)NCCO)c2ccc(-c3cccc(F)c3)cc12` [Example 109, 1-amino-7-(3-fluorophenyl)-N-(2-hydroxyethyl) isoquinoline-4-carboxamide] belongs 0.0774 µM; to `Nc1ncc(C(=O)NCCC(=O)N2CCOCC2)c2ccc(-c3cccc(F)c3)cc12` [Example 110, 1-amino-7-(3-fluorophenyl)-N-(3-morpholino-3-oxo-propyl)isoquinoline-4-carboxamide], 0.403 µM; to `N#CCNC(=O)c1cnc(N)c2cc(-c3cccc(F)c3)ccc12` [Example 111, 1-amino-N-(cyanomethyl)-7-(3-fluorophenyl) isoquinoline-4-carboxamide], 0.0441 µM. Take `Nc1ncc(C(=O)NC2CCOC2)c2ccc(-c3cccc(F)c3)cc12` (stereo not shown) [Example 112, 1-amino-7-(3-fluorophenyl)-N-tetrahydrofuran-3-yl-isoquinoline-4-carboxamide]: the IC50 was 0.0731 µM. Against the preceding compound, the IC50 is about 1.7-fold higher. Turning to `Nc1ncc(C(=O)NC(CO)CO)c2ccc(-c3cccc(F)c3)cc12` [Example 114, 1-amino-7-(3-fluorophenyl)-N-[2-hydroxy-1-(hydroxy-methyl)ethyl]isoquinoline-4-carboxamide], half-maximal inhibition (IC50) was put at 0.0386 µM. On the same count and under the same terms, to `Nc1ncc(C(=O)NC2COC2)c2ccc(-c3cccc(F)c3)cc12` [Example 115, 1-amino-7-(3-fluorophenyl)-N-(oxetan-3-yl)isoquinoline-4-carboxamide] belongs 0.0454 µM; to `Cc1cncc(NC(=O)c2cnc(N)c3cc(-c4cccc(F)c4)ccc23)c1` [Example 116, 1-amino-7-(3-fluorophenyl)-N-(5-methyl-3-pyridyl) isoquinoline-4-carboxamide], 0.114 µM. The same measure, in the same setting: to `Cc1ncc(NC(=O)c2cnc(N)c3cc(-c4cccc(F)c4)ccc23)cn1` [Example 117, 1-amino-7-(3-fluorophenyl)-N-(2-methylpyrimidin-5-yl)isoquinoline-4-carboxamide] belongs 0.07 µM; to `CC(O)CNC(=O)c1cnc(N)c2cc(-c3cccc(F)c3)ccc12` (stereo not shown) [Example 119, 1-amino-7-(3-fluorophenyl)-N-(2-hydroxypropyl) isoquinoline-4-carboxamide], 0.0996 µM; to `Nc1ncc(C(=O)O)c2ccc(-c3cccc(F)c3)cc12` [Example 123, 1-amino-7-(3-fluorophenyl) isoquinoline-4-carboxylic acid], 2.1 µM. On the same count and under the same terms, under `Nc1ncc(C(=O)NC2CNC2)c2ccc(-c3cccc(F)c3)cc12` [Example 124, 1-amino-N-(azetidin-3-yl)-7-(3-fluorophenyl) isoquinoline-4-carboxamide] stands 0.4 µM; under `CCC(=O)N1CC(NC(=O)c2cnc(N)c3cc(-c4cccc(F)c4)ccc23)C1` [Example 125, 1-amino-7-(3-fluorophenyl)-N-(1-propanoylazetidin-3-yl)isoquinoline-4-carboxamide], 0.0503 µM; under `Nc1ncc(C(=O)NC2CN(C(=O)C3CC3)C2)c2ccc(-c3cccc(F)c3)cc12` [Example 126, 1-amino-N-[1-(cyclo-propanecarbonyl)azetidin-3-yl]-7-(3-fluorophenyl)isoquinoline-4-carboxamide], 0.0357 µM.

Another assay deals with T1, purified human MAP4K4 kinase domain. The assay can be described thus: MAP4K4 Inhibition Assay Protocol No. 2 (Z'-LYTE FRET). It is filed as biochemical. The conditions noted are these: Assay 2; 1 nM enzyme, 10 uM ATP, 60 min. The text has this: The kinase activity of purified human MAP4K4 kinase domain was monitored using Z'-LYTE™ technology from Invitrogen to determine inhibition constants (IC50) of small molecule inhibitors. The Z'-LYTE™ biochemical assay employs a fluorescence-based, coupled-enzyme format and is based on the differential sensitivity of phosphorylated and non-phosphorylated peptides to proteolytic cleavage. In the primary reaction, the kinase transfers the gamma-phosphate of ATP to a single tyrosine, serine or threonine residue in a synthetic FRET-peptide. In the secondary reaction, a site-specific protease recognizes and cleaves non-phosphorylated FRET-peptides. Phosphorylation of FRET-peptides suppresses cleavage by the Development Reagent. Cleavage disrupts FRET between the donor (i.e., coumarin) and acceptor (i.e., fluorescein) fluorophores on the FRET-peptide, whereas uncleaved, phosphorylated FRET-peptides maintain FRET. To determine inhibition constants (IC50), compounds were serially diluted in DMSO and added to 10 uL kinase reactions containing 1 nM purified MAP4K4 enzyme, 2 uM ser/thr7 Z'-LYTE™ substrate, 10 uMATP, 50 mM Hepes (pH 7.5), 10 mM MgCl2, 1 mM EGTA, 0.01% Brij-35, and 2% DMSO. Reactions were incubated at room temperature in Corning Black 384 well plates (Corning#3573) for 60 minutes and stopped by the addition of 5 uL of Z'-LYTE™ development reagent A and incubated at room temp for 60 minutes. The plate is then analyzed on Perkin Elmer Envision by FRET mode. The high ratio of coumarin/fluorescein represents 0% phosphorylation rate while low ratio of coumarin/fluorescein represents 100% phosphorylation rate. The following equations are used to determine extent of peptide phosphorylation or inhibition: […]
For the compound `Cn1cnc(-c2cnc(N)c3cc(-c4cccc(F)c4)ccc23)c1` [Example 10, 7-(3-fluorophenyl)-4-(1-methylimidazol-4-yl)isoquinolin-1-amine], half-maximal inhibition (IC50) was put at 0.0287 µM. Same read-out and setting: to `Nc1ncc(-c2ncco2)c2ccc(-c3cccc(F)c3)cc12` [Example 11, 7-(3-fluorophenyl)-4-oxazol-2-yl-isoquinolin-1-amine] belongs 0.00873 µM; to `Cn1ncnc1-c1cnc(N)c2cc(-c3cccc(F)c3)ccc12` [Example 12, 7-(3-fluorophenyl)-4-(2-methyl-1,2,4-triazol-3-yl)isoquinolin-1-amine], 0.218 µM; to `Nc1ncc(C(=O)NC2CN(C(=O)N3CCS(=O)(=O)CC3)C2)c2ccc(-c3cccc(F)c3)nc12` [Example 15, 8-amino-N-(1-(1,1-dioxidothiomorpholine-4-carbonyl)azetidin-3-yl)-2-(3-fluorophenyl)-1,7-naphthyridine-5-carboxamide], 0.00455 µM. The same measure, in the same setting: under `CC(O)C(=O)N1CC(NC(=O)c2cnc(N)c3nc(-c4cccc(F)c4)ccc23)C1` (stereo not shown) [Example 16, 8-amino-2-(3-fluorophenyl)-N-(1-(2-hydroxypropanoyl)azetidin-3-yl)-1,7-naphthyridine-5-carboxamide] stands 0.0045 µM; under `Nc1ncc(C(=O)NC2CN(C(=O)C3COC3)C2)c2ccc(-c3cccc(F)c3)nc12` [Example 17, 8-amino-2-(3-fluorophenyl)-N-(1-(oxetane-3-carbonyl)azetidin-3-yl)-1,7-naphthyridine-5-carboxamide], 0.0195 µM. Compound `CS(=O)(=O)N1CC(NC(=O)c2cnc(N)c3nc(-c4cccc(F)c4)ccc23)C1` [Example 18, 8-amino-2-(3-fluorophenyl)-N-(1-(methylsulfonyl)azetidin-3-yl)-1,7-naphthyridine-5-carboxamide] yielded an IC50 of 0.0116 µM.

Turning to `CN(C)S(=O)(=O)N1CC(NC(=O)c2cnc(N)c3nc(-c4cccc(F)c4)ccc23)C1` [Example 19, 8-amino-N-(1-(N,N-dimethylsulfamoyl)azetidin-3-yl)-2-(3-fluorophenyl)-1,7-naphthyridine-5-carboxamide], half-maximal inhibition (IC50) required 0.00385 µM. `Nc1ncc(C(=O)NC2CN(C(=O)CN3CCOCC3)C2)c2ccc(-c3cccc(F)c3)nc12` [Example 20, 8-amino-2-(3-fluorophenyl)-N-(1-(2-morpholinoacetyl)azetidin-3-yl)-1,7-naphthyridine-5-carboxamide] gave an IC50 of 0.0068 µM. For `Nc1ncc(C(=O)NC2CN(S(N)(=O)=O)C2)c2ccc(-c3cccc(F)c3)nc12` [Example 21, 8-amino-2-(3-fluorophenyl)-N-(1-sulfamoylazetidin-3-yl)-1,7-naphthyridine-5-carboxamide], the half-maximal inhibitory concentration (IC50) was 0.0018 µM.

As to `Nc1ncc(C(=O)NC2CN(CC(F)(F)F)C2)c2ccc(-c3cccc(F)c3)nc12` [Example 22, 8-amino-2-(3-fluorophenyl)-N-(1-(2,2,2-trifluoroethyl)azetidin-3-yl)-1,7-naphthyridine-5-carboxamide], it took 0.0244 µM to reach half-maximal inhibition (IC50). Compared with the last compound, the IC50 is about 14-fold higher.

With `Nc1ncc(C(=O)NC2CN(S(=O)(=O)C(F)(F)F)C2)c2ccc(-c3cccc(F)c3)nc12` [Example 23, 8-amino-2-(3-fluorophenyl)-N-(1-((trifluoromethyl)sulfonyl)azetidin-3-yl)-1,7-naphthyridine-5-Carboxamide], 0.0285 µM corresponded to half-maximal inhibition (IC50). The IC50 values of the last two compounds are within 1.5-fold of each other. The compound `C[C@@H](O)C(=O)N1CC(NC(=O)c2cnc(N)c3nc(-c4cccc(F)c4)ccc23)C1` [Example 24, (R)-8-amino-2-(3-fluorophenyl)-N-(1-(2-hydroxypropanoyl)azetidin-3-yl)-1,7-naphthyridine-5-carboxamide] gave an IC50 of 0.004 µM.
